Data set [1] has as its system C. tyrobutyricum Δcat1::adhE2. The data set is described as follows: Batch fermentations of glucose and xylose in bioreactors at pH 6.0 with methyl viologen. In kind it is cell-based, Clostridium tyrobutyricum. The method, then: Batch fermentations of glucose and xylose by C. tyrobutyricum Δcat1::adhE2 were studied in bioreactors at pH 6.0 in the presence of methyl viologen (MV) at various concentrations (0 μM, 200 μM, 500 μM, 1000 μM). For glucose fermentation, MV was added at 12 h after inoculation. […] The fermentation time course data are shown in FIGS. 11A-11H and the effects of MV on cell growth and fermentation kinetics are illustrated in FIG. 12. […] Similar trends were also observed with xylose as the substrate at 200 μM MV. […] The results also indicate that biomass hydrolysate sugars including glucose and xylose can be used simultaneously and converted to butanol by engineered C. tyrobutyricum expressing adhE2.

Data set [2] relates to C. tyrobutyricum Δcat1::adhE2. The data set can be described thus: Batch fermentation of glucose in serum bottles with methyl viologen added. The data set is classed as cell-based, Clostridium tyrobutyricum. From the text: Artificial electron carriers such as methyl viologen, benzyl viologen and neutral red have been used in solventogenic clostridia to increase butanol production through diverting electron flow towards NADH formation accompanied by decreased hydrogen production. An artificial electron carrier, such as methyl viologen (MV) and benzyl viologen (BV), was used to inhibit hydrogen production and increase NADH pool and butanol production by C. tyrobutyricum expressing adhE2. C. tyrobutyricum Δcat1::adhE2 was cultured in Clostridia Growth Medium (CGM) containing glucose as the carbon source in serum bottles at 37° C. The medium pH was buffered at ˜5.5 with CaCO3. At 24 h after initial seeding the bottles, methyl viologen was added at various concentrations (up to 1000 μM) to study its effects on cell growth and butanol production. […] The highest butanol yield and productivity were obtained at 500 μM MV. Similar results can also be achieved with other electron carriers such as benzyl viologen and neutral red.

Some results are limits rather than exact numbers.

1 compound from patent US20250215460A1, “MICROBIAL […] THE CONVERSION OF CARBOHYDRATES” (Ohio State Innovation Foundation, priority 2022, published 2025) can be followed below.

Regarding `C[n+]1ccc(-c2cc[n+](C)cc2)cc1` [MV, methyl viologen], in data set [1] (bioreactor, pH 6.0), the “Toxicity to cells, xylose compared to glucose” value is on record as “more toxic to cells grown on xylose”. In data set [1] (glucose as substrate, MV 0-1000 μM added at 12 h, pH 6.0), the “Effect on product formation with increasing MV concentration” value was “butanol and lactate production increased while acetate and butyrate production decreased”. Also, the “Effect on cell growth and fermentation” value in data set [1] (xylose as substrate, 500 μM and 1000 μM MV added at 24 h, pH 6.0) was “completely inhibited cell growth and stopped fermentation”. In addition, in data set [1] (xylose fermentation, 500 mM and 1000 mM MV, addition delayed to 24 h), the “Effect on cell growth and fermentation (figure legend)” value is “completely inhibited cell growth and fermentation”. Moreover, in data set [2] (MV up to 1000 μM added at 24 h, pH ~5.5, 37° C.), the “Effect on acetate and butanol production from glucose” value is “dramatically reduced acetate production and increased butanol production”. Also, in data set [2] (glucose, pH ~5.5), the “MV concentration at which lactate was also produced as a byproduct” value is ≥ 200 µM; the “MV concentration giving the highest butanol yield and productivity” value worked out at 500 µM.
